# In patent US20090111847A1, “PREPARATION METHOD AND USE OF COMPOUNDS HAVING HIGH INSECTICIDAL ACTIVITIES” (priority 2006, published 2009):
# Assays:
# [1] = test system: Aphis craccivora; assay: Insecticidal activity against Aphis craccivora by immersing (mortality after 24 hours); assay type: in vivo; details: for mortality at 500 ppm: Aphis craccivora, 24 h, read-out: Mortality (%) (500 ppm) Aphis craccivora; for Mortality (%) (500 ppm) Aphis craccivora: in vivo
# Experimental: Aphis, which belongs to Homoptera and has a piercing-sucking mouthpart, is a common insect for agricultural plant. Aphis craccivora was tested by the way of immersing.
# Test method: exactly weighed various samples were independently added to N,N-dimethylformamide to form a 10 g/L stock solution. The mixture was diluted with 0.2 mL/L aqueous Triton X-100 solution to a concentration of 500 ug/mL. After stably sucking on bean sprout, the adult aphis without wings together with bean sprout was dipped into the dilution of 500 ug/mL, 100 ug/mL, 50 ug/mL, 25 ug/mL, 12.5 ug/mL, 6.25 ug/mL (LD50 was calculated), taken out after 5 seconds, and the excess dilution was sucked out with bibulous paper and the adult aphis without wings was incubated in clean vessel at a constant temperature of 23° C. Each concentration was repeated for 3 times and the control group contained 0.2 mL/L aqueous Triton X-100 solution. The number of killed aphis was counted after 24 hours to calculate the mortality.
# [2] = test system: Nilaparvata lugens; assay: Insecticidal activity against Nilaparvata lugens by spraying (mortality after 24 hours); assay type: in vivo; details: for mortality at 500 ppm: Nilaparvata lugens, 24 h, read-out: Mortality (%) (500 ppm) Nilaparvata lugens; for Mortality (%) (500 ppm) Nilaparvata lugens: spraying 2 ml, counted after 24 hours
# Experimental: Plant hopper, which belongs to Homoptera and has a piercing-sucking mouthpart, is a common insect for agricultural plant. Nilaparvata lugens was tested by the way of spraying.
# Test method: the compound to be tested was exactly formulated into a solution having a certain concentration and clean water was used as a blank control. Each process was repeated for 3 tumblers (3 times). 2 ml of solution was sprayed uniformly to each tumbler by a mini manual sprayer. 10 Nilaparvata lugens were introduced to every sink 6 hours before spraying. Three series of experiments were conducted. The number of killed Nilaparvata lugens was counted after 24 hours to calculate the mortality.
Structure (SMILES),mortality at 500 ppm [1],mortality at 500 ppm [2],Mortality (%) (500 ppm) Aphis craccivora [1],Mortality (%) (500 ppm) Nilaparvata lugens [2]
"CCCCOC1CC(C)C([N+](=O)[O-])=C2N(Cc3ccc(Cl)nc3)CCN21 (stereo not shown) [Compound 7, 5-butoxy-1-((6-chloropyridin-3-yl)methyl)-7-methyl-8-nitro-1,2,3,5,6,7-hexahydroimidazo[1,2-a]pyridine]",80%,100%,,
COC1CC([N+](=O)[O-])=C2N(Cc3cnc(Cl)s3)CCN2C1O (stereo not shown) [Compound 48],,,85%,90%
CCC1C(C)C([N+](=O)[O-])=C2N(Cc3ccc(Cl)nc3)CCN2C1O (stereo not shown) [Compound 33],,,92%,78%
CC1C(O)N2CCN(Cc3ccc(Cl)nc3)C2=C([N+](=O)[O-])C1(C)C (stereo not shown) [Compound 36],,,94%,97%
CC1CC([N+](=O)[O-])=C2N(Cc3cnc(Cl)s3)CCN2C1O (stereo not shown) [Compound 21],,,90%,100%
CCOC1CC(C)C([N+](=O)[O-])=C2N(Cc3cnc(Cl)s3)CCN21 (stereo not shown) [Compound 13],,,98%,100%
C#CCOC1CC(C)C([N+](=O)[O-])=C2N(Cc3ccc(Cl)nc3)CCN21 (stereo not shown) [Compound 10],,,43%,67%
CCOC1C(C)CC([N+](=O)[O-])=C2N(Cc3ccc(Cl)nc3)CCN21 (stereo not shown) [Compound 19],,,100%,100%
CCC1C([N+](=O)[O-])=C2N(Cc3ccc(Cl)nc3)CCN2C(O)C1C (stereo not shown) [Compound 35],,,100%,88%
CCOC1CC([N+](=O)[O-])=C2N(Cc3ccc(Cl)nc3)CCN2C1O (stereo not shown) [Compound 47],,,98%,91%
CCC1CC([N+](=O)[O-])=C2N(Cc3ccc(Cl)nc3)CCN2C1OC (stereo not shown) [Compound 27],,,92%,80%
CC1CC(O)N2CCN(CC3CCOC3)C2=C1[N+](=O)[O-] (stereo not shown) [Compound 15],,,24%,35%
CCCC1CC([N+](=O)[O-])=C2N(Cc3ccc(Cl)nc3)CCN2C1O (stereo not shown) [Compound 28],,,100%,96%
CCOC1CC(C)C([N+](=O)[O-])=C2N(CC3CCOC3)CCN21 (stereo not shown) [Compound 17],,,89%,100%
COC1C([N+](=O)[O-])=C2N(Cc3ccc(Cl)nc3)CCN2C(O)C1C (stereo not shown) [Compound 43],,,100%,97%
C=CCOC1CC(C)C([N+](=O)[O-])=C2N(Cc3ccc(Cl)nc3)CCN21 (stereo not shown) [Compound 9],,,98%,100%
CCCOC1C(C)CC([N+](=O)[O-])=C2N(Cc3ccc(Cl)nc3)CCN21 (stereo not shown) [Compound 20],,,86%,98%
CCCCC1CC(O)N2CCN(Cc3ccc(Cl)nc3)C2=C1[N+](=O)[O-] (stereo not shown) [Compound 41],,,72%,50%
"CC1CC(O)N2CCN(Cc3ccc(Cl)nc3)C2=C1[N+](=O)[O-] (stereo not shown) [Compound 1, 1-((6-chloropyridin-3-yl)methyl)-7-methyl-8-nitro-1,2,3,5,6,7-hexahydroimidazo[1,2-a]pyridin-5-ol]",100%,100%,,
COC1CC(O)N2CCN(Cc3cnc(Cl)s3)C2=C1[N+](=O)[O-] (stereo not shown) [Compound 44],,,100%,97%
CCCC1CC(OCC)N2CCN(Cc3ccc(Cl)nc3)C2=C1[N+](=O)[O-] (stereo not shown) [Compound 25],,,96%,100%
CCCCCOC1CC(C)C([N+](=O)[O-])=C2N(Cc3ccc(Cl)nc3)CCN21 (stereo not shown) [Compound 8],,,67%,80%
COC1C(C)C([N+](=O)[O-])=C2N(Cc3ccc(Cl)nc3)CCN2C1O (stereo not shown) [Compound 49],,,100%,100%
